Data: patent publication US11286278B2, “DPEP-1 binding agents and methods of use” (Arch Biopartners, Inc., priority 2018, dated 2022)

Experiments:
[1] = system: monocyte adhesion in kidney; assay: Endotoxemia induced kidney inflammation, monocyte adhesion by multiphoton microscopy; type: in vivo, mouse; details: LysM gfp/gfp mice, LPS O111:B4 5 mg/kg i.v., 4 hours post LPS, peptide pretreatment
Experimental: HEK293T cells were transfected with pcDNA vector containing human DPEP1 via Lipofectamine 2000 as per manufacturer protocol. Transfected cells were positively selected for using geneticin resistance and subcloned to generate stably transfected DPEP1 clones. Human renal tubular epithelial cells (hTEC) were isolated and cultured from human kidney nephrectomies. For immunocytochemistry, cells were cultured on collagen coated glass coverslips and fixed by 4% paraformaldehyde. Fixed cells were incubated with biotinylated LSALT peptides (50 μM) with various modifications (glycine linkers and/or amidation) for 1 hour at 37° C. before PBS washes. Bound biotinylated peptide was detected via secondary streptavidin fluorescent conjugate (30 min. incubation at 37° C.) and washed with PBS. […] Bound biotinylated peptide was detected via secondary streptavidin fluorescent conjugate (30 min. incubation at 37° C.) and washed with PBS. Peptide binding was analyzed via flow cytometer. […] Inflammation was quantified by manual counting of monocyte adhesion in single microscopy fields (n=3-6 fields/group; *:p=0.02).
Plasma was separated for each sample and phosphoric acid added to stabilize peptide at each timepoint. Samples were assessed for LSALT and its' metabolites using LC/MS. […] Peptide binding was analyzed via flow cytometer. […]

[2] = system: LPS activated endothelial cells (HLMVEC); assay: Static neutrophil adhesion assay to LPS activated endothelial cells (HLMVEC); type: cell-based; details: human neutrophils, peptides at 100 uM or antibody at 13 ug/mL, LPS 1 ug/mL
Experimental: (§1) In the top panel, 96-well nickel-coated plates were coated with nothing or his-tagged recombinant human DPEP1 (9 pmol/well in PBS, incubated for 1 hr at room temp), washed out 3× with PBS +0.05% Tween 20, and blocked for 1 hr at room temp with cell culture media (Cell Applications Inc. Cat#111-500). Freshly isolated human neutrophils were added to the wells at 5×10^4/mL, 100 uL volume, with the indicated peptides at 0.45uM. After 30 minutes at 37° C., wells were washed out 3× with PBS, and fixed with 3.7% formaldehyde in PBS. Two fields-of-view were photographed at 4× magnification and all the cells counted were recorded for each well, done in triplicate. In the middle panel, Cos1 cells were transfected with an empty vector (Mock) or a vector encoding wild type human DPEP1, two days prior. One day prior, transfected cells were plated at near confluency in a 24-well plate. On the day of the experiment, freshly isolated human neutrophils were added to the wells at 1×10^5/mL, 0.5mL volume, with the indicated peptides at 100 uM. After 30 minutes at 37° C., wells were washed out 3× with culture media, then fixed in 3.7% formaldehyde in PBS. Five fields-of-view were photographed at 20× magnification and averaged for each well, done in triplicate. In the bottom panel, two days prior, 24-well plates were coated with Attachment Factor Solution (Cell Applications Inc. Cat#123-500). […]

DPEP1 [3] = biological target: T1, DPEP1 (Homo sapiens, UniProt P16444); assay: Phage hit binding to DPEP1 transfected Cos 1 cells; design: expressed in transfected cells; host or cells: Cos-1; details: 10^8 pfu test phage, backscreen DPEP1 vs DPEP2
T1 sequence (P16444 17-385): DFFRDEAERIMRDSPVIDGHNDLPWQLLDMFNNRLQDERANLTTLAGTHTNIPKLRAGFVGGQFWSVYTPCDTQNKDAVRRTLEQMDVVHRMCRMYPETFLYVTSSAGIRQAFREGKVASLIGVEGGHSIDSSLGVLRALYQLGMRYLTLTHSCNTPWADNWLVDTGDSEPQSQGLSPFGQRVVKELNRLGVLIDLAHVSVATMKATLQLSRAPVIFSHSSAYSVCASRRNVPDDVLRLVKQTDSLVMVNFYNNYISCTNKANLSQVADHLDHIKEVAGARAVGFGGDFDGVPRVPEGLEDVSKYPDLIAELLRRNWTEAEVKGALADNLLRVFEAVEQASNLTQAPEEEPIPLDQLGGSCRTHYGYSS
Experimental: The Ph.D.-12 library was first subtracted 3× against DPEP2 (Creative Biomart; DPEP2-8611H) linked to agarose beads (10 uL of DPEP-agarose in 100 uL Luria broth and 4.5×10^9 pfu of Ph.D.-12 library), wherein the phage remaining in the supernatant was retained, and those that stuck to the subtraction beads were discarded. Second, the library was selected against DPEP1-agarose beads, wherein the phage remaining in the supernatant were discarded and those binding to DPEP1-agarose pellet were retained. The pellet was washed 3× in PBS, then transferred to phage host bacterial culture (ER 2738) to amplify the bound phage, which were then precipitated as per manufacturer's protocol. The recovered phage were then used to repeat the subtraction and selection steps. […] Each plaque was amplified separately in liquid bacterial host culture. […] DNA inserts were translated to the expected protein and sorted to assess the number of repeating sequences. […]
In FIG. 19B, Cos1 cells were transiently transfected with plasmids corresponding to human DPEP1 or DPEP2 (Lipofectamine 2000) 24 hrs prior to plating on collagen-coated (PureCol; Type I collagen from bovine tendon) coverslips. One day later cells were incubated with 10^8 pfu test phage, which were then detected by anti-M13 rabbit serum (in house) with anti-rabbit Alexa 568 secondary. […]

DPEP1 [4] = biological target: T1, DPEP1; assay: Static neutrophil adhesion assay to recombinant hDPEP1; type: cell-based; design: purchased Creative Biomart DPEP1-77H; details: human neutrophils, peptides at 0.45uM, 30 minutes
Experimental: as §1

[5] = system: Cos 1 transfected cells (human DPEP1); assay: Static neutrophil adhesion assay to DPEP1 transfected Cos1 cells; type: cell-based; details: human neutrophils, peptides at 100 uM, 30 minutes
Experimental: as §1

GGGLSALTPSPSWLKYKAL [Peptide G2, tri-glycine LSALT (G2)]
endotoxemia induced kidney inflammation (monocyte adhesion) [1]: can inhibit endotoxemia induced kidney inflammation

HIPKSPIQIPII
neutrophil adhesion to LPS activated endothelial cells (HLMVEC) [2]: able to inhibit neutrophil adhesion

KHMHWHPPALNT
phage binding to DPEP1 transfected cells (DPEP1 [3]): brightest binding to DPEP1 transfected cells

KHMHWHPPALNT [NeoH]
neutrophil adhesion to LPS activated endothelial cells (HLMVEC) [2]: able to inhibit neutrophil adhesion
neutrophil adhesion to recombinant hDPEP1 (DPEP1 [4]): able to inhibit neutrophil adhesion
neutrophil adhesion to DPEP1 transfected Cos 1 cells [5]: able to inhibit neutrophil adhesion
